# In PubChem BioAssay AID256 (DTP/NCI, 2004):
# Values joined by “and” are separate entries in the source; they are usually repeats but may differ in a detail not shown here. Identical values can stand only once. Inconclusive results and toxic doses are left out.
# System: CD2F1 mice, L1210 leukemia ip, survival T/C
# Experiment: NCI In Vivo Anticancer Drug Screen. Data for tumor model L1210 Leukemia (intraperitoneal) in CD2F1 (CDF1) mice
# Details: higher = longer survival
# Method in brief: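 Mice carrying a transplanted tumor received test compound or vehicle alone. The value is the measurement in the treated group divided by that in the vehicle-treated control group.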
# [1] = endpoint: mean survival time, dose: 100.0 mg/kg/injection, schedule: Q04DX002 (ip), vehicle: saline with Tween-80
# [2] = endpoint: mean survival time, dose: 200.0 mg/kg/injection, schedule: Q04DX002 (ip), vehicle: saline with Tween-80
# [3] = endpoint: mean survival time, dose: 25.0 mg/kg/injection, schedule: Q01DX009 (ip), vehicle: saline with Tween-80
# [4] = endpoint: mean survival time, dose: 50.0 mg/kg/injection, schedule: Q01DX009 (ip), vehicle: saline with Tween-80
# [5] = endpoint: mean survival time, dose: 100.0 mg/kg/injection, schedule: Q01DX001 (ip), vehicle: saline with Tween-80
# [6] = endpoint: mean survival time, dose: 100.0 mg/kg/injection, schedule: Q01DX009 (ip), vehicle: saline with Tween-80
# [7] = endpoint: mean survival time, dose: 100.0 mg/kg/injection, schedule: Q04DX003 (ip), vehicle: saline
# [8] = endpoint: mean survival time, dose: 200.0 mg/kg/injection, schedule: Q04DX003 (ip), vehicle: saline
# [9] = endpoint: mean survival time, dose: 400.0 mg/kg/injection, schedule: Q04DX003 (ip), vehicle: saline
# [10] = endpoint: mean survival time, dose: 200.0 mg/kg/injection, schedule: Q01DX009 (ip), vehicle: saline with Tween-80
# [11] = endpoint: mean survival time, dose: 400.0 mg/kg/injection, schedule: Q01DX009 (ip), vehicle: saline with Tween-80
# [12] = endpoint: mean survival time, dose: 200.0 mg/kg/injection, schedule: Q01DX001 (ip), vehicle: saline with Tween-80
# [13] = endpoint: mean survival time, dose: 400.0 mg/kg/injection, schedule: Q04DX002 (ip), vehicle: saline with Tween-80
compound,measurement,setting,value
OCC1OC(n2cc(I)c3c2ncn2ccnc32)C(O)C1O (stereo not given),T/C,"endpoint: mean survival time, dose: 1.56 mg/kg/injection, schedule: Q01DX005 (ip), vehicle: water",92 % of control
same,T/C,"endpoint: mean survival time, dose: 3.13 mg/kg/injection, schedule: Q01DX005 (ip), vehicle: water",92 % of control
same,T/C,"endpoint: mean survival time, dose: 6.25 mg/kg/injection, schedule: Q01DX005 (ip), vehicle: water",97 % of control
same,T/C,"endpoint: mean survival time, dose: 12.5 mg/kg/injection, schedule: Q01DX005 (ip), vehicle: water",104 % of control
same,T/C,"endpoint: mean survival time, dose: 25.0 mg/kg/injection, schedule: Q01DX005 (ip), vehicle: water",100 % of control
Nc1ccccc1-c1n[nH]c2ccccc12,T/C,"endpoint: mean survival time, dose: 25.0 mg/kg/injection, schedule: Q04DX002 (ip), vehicle: saline with Tween-80",110 % of control
same,T/C,"endpoint: mean survival time, dose: 50.0 mg/kg/injection, schedule: Q04DX002 (ip), vehicle: saline with Tween-80",103 % of control
same,T/C,[1],103 % of control
same,T/C,[2],100 % of control
CN(C)CCC(=O)c1cccc2ccccc12,T/C,[3],98 % of control
same,T/C,[4],96 % of control
same,T/C,[5],92 % of control
same,T/C,[6],96 % of control
CC(N)C(=O)NC(CO)C(=O)O (stereo not given),T/C,"endpoint: mean survival time, dose: 100.0 mg/kg/injection, schedule: Q01DX009 (ip), vehicle: saline",103 % of control
same,T/C,[7],97 % of control
same,T/C,"endpoint: mean survival time, dose: 200.0 mg/kg/injection, schedule: Q01DX009 (ip), vehicle: saline",95 % of control
same,T/C,[8],93 % of control
same,T/C,"endpoint: mean survival time, dose: 400.0 mg/kg/injection, schedule: Q01DX009 (ip), vehicle: saline",97 % of control
same,T/C,[9],93 % of control
C/C(=N/NC(=O)CC#N)c1ccccc1,T/C,[3],98 % of control
same,T/C,[4],98 % of control
same,T/C,[6],98 % of control
Cc1nc(Cl)cc(Cl)c1C,T/C,"endpoint: mean survival time, dose: 178.0 mg/kg/injection, schedule: Q04DX003 (ip), vehicle: other",100 % of control
same,T/C,"endpoint: mean survival time, dose: 266.0 mg/kg/injection, schedule: Q04DX003 (ip), vehicle: other",100 % of control
same,T/C,"endpoint: mean survival time, dose: 400.0 mg/kg/injection, schedule: Q04DX003 (ip), vehicle: other",95 % of control
same,T/C,"endpoint: mean survival time, dose: 600.0 mg/kg/injection, schedule: Q04DX003 (ip), vehicle: other",105 % of control
Cc1ccc(S(=O)(=O)NC(=O)C(Cc2ccccc2)c2ccccc2)cc1 (stereo not given),T/C,"endpoint: mean survival time, dose: 75.0 mg/kg/injection, schedule: Q01DX001 (ip), vehicle: other",96 % of control
same,T/C,"endpoint: mean survival time, dose: 150.0 mg/kg/injection, schedule: Q01DX001 (ip), vehicle: other",98 % of control
same,T/C,"endpoint: mean survival time, dose: 300.0 mg/kg/injection, schedule: Q01DX001 (ip), vehicle: other",96 % of control
COC(=O)C(CCl)NC(C)=O (stereo not given),T/C,[6],96 % of control and 101 % of control
same,T/C,[10],96 % of control and 102 % of control
same,T/C,[11],108 % of control and 98 % of control
C[N+]1=C2CCCC2=C(N)CC1,T/C,"endpoint: mean survival time, dose: 6.25 mg/kg/injection, schedule: Q01DX009 (ip), vehicle: saline",105 % of control
same,T/C,"endpoint: mean survival time, dose: 12.5 mg/kg/injection, schedule: Q01DX009 (ip), vehicle: saline",100 % of control
same,T/C,"endpoint: mean survival time, dose: 25.0 mg/kg/injection, schedule: Q01DX009 (ip), vehicle: saline",98 % of control
Nc1nc(N)c(CCCc2ccccc2)c(N)n1,T/C,"endpoint: mean survival time, dose: 2.0 mg/kg/injection, schedule: Q04DX002 (ip), vehicle: Klucel (hydroxypropylcellulose) (HPC)",104 % of control
same,T/C,"endpoint: mean survival time, dose: 4.0 mg/kg/injection, schedule: Q04DX002 (ip), vehicle: Klucel (hydroxypropylcellulose) (HPC)",101 % of control
same,T/C,"endpoint: mean survival time, dose: 8.0 mg/kg/injection, schedule: Q04DX002 (ip), vehicle: Klucel (hydroxypropylcellulose) (HPC)",109 % of control
same,T/C,"endpoint: mean survival time, dose: 16.0 mg/kg/injection, schedule: Q04DX002 (ip), vehicle: Klucel (hydroxypropylcellulose) (HPC)",98 % of control
same,T/C,"endpoint: mean survival time, dose: 32.0 mg/kg/injection, schedule: Q04DX002 (ip), vehicle: Klucel (hydroxypropylcellulose) (HPC)",98 % of control
same,T/C,"endpoint: mean survival time, dose: 64.0 mg/kg/injection, schedule: Q04DX002 (ip), vehicle: Klucel (hydroxypropylcellulose) (HPC)",98 % of control
O=C(OCC1OC(n2cnc([N+](=O)[O-])n2)C(OC(=O)c2ccccc2)C1OC(=O)c1ccccc1)c1ccccc1 (stereo not given),T/C,"endpoint: median survival time, dose: 18.8 mg/kg/injection, schedule: Q01DX005 (ip), vehicle: Klucel (hydroxypropylcellulose) (HPC)",100 % of control
same,T/C,"endpoint: median survival time, dose: 37.5 mg/kg/injection, schedule: Q01DX005 (ip), vehicle: Klucel (hydroxypropylcellulose) (HPC)",102 % of control
same,T/C,"endpoint: median survival time, dose: 75.0 mg/kg/injection, schedule: Q01DX005 (ip), vehicle: Klucel (hydroxypropylcellulose) (HPC)",97 % of control
same,T/C,"endpoint: median survival time, dose: 140.0 mg/kg/injection, schedule: Q01DX005 (ip), vehicle: Klucel (hydroxypropylcellulose) (HPC)",96 % of control
CC=C1C=C(C(C)(C)C)C(=O)C(C(C)(C)C)=C1,T/C,"endpoint: mean survival time, dose: 25.0 mg/kg/injection, schedule: Q01DX009 (ip), vehicle: Klucel (hydroxypropylcellulose) (HPC)",90 % of control
same,T/C,"endpoint: mean survival time, dose: 50.0 mg/kg/injection, schedule: Q01DX009 (ip), vehicle: Klucel (hydroxypropylcellulose) (HPC)",102 % of control
same,T/C,"endpoint: mean survival time, dose: 100.0 mg/kg/injection, schedule: Q01DX009 (ip), vehicle: Klucel (hydroxypropylcellulose) (HPC)",98 % of control
CCCCC(NC(=O)CCl)C(=O)O (stereo not given),T/C,[1],95 % of control
same,T/C,[2],103 % of control
CC(=O)Nc1ncc2nc(C)c(C)nc2n1,T/C,[4],98 % of control
OCC1OC(O)C(O)C(O)C1O (stereo not given),T/C,[7],103 % of control
same,T/C,[8],98 % of control
same,T/C,[9],98 % of control
CCN(CC)CCNc1ncnc(N)c1C(=C(C)C)c1ccc(Cl)cc1,T/C,[4],96 % of control
same,T/C,[5],94 % of control
same,T/C,[6],96 % of control
same,T/C,[12],86 % of control
same,T/C,[10],87 % of control
O=C(O)COc1cc(Cl)c(Cl)cc1Cl (tested in a mixture with another compound),T/C,[1],96 % of control
same,T/C,[2],114 % of control
CC(C)(C)C(=O)OCC1OC(n2ccc(O)cc2=O)C(O)C1O (stereo not given),T/C,"endpoint: median survival time, dose: 67.0 mg/kg/injection, schedule: Q01DX009 (ip), vehicle: saline + Tween-80 + alcohol",168 % of control
same,T/C,"endpoint: median survival time, dose: 100.0 mg/kg/injection, schedule: Q01DX009 (ip), vehicle: saline + Tween-80 + alcohol",163 % of control
same,T/C,"endpoint: median survival time, dose: 150.0 mg/kg/injection, schedule: Q01DX009 (ip), vehicle: saline + Tween-80 + alcohol",150 % of control
same,T/C,"endpoint: median survival time, dose: 225.0 mg/kg/injection, schedule: Q01DX009 (ip), vehicle: saline + Tween-80 + alcohol",154 % of control
Nc1nc(Br)c(Br)nc1N,T/C,"endpoint: mean survival time, dose: 100.0 mg/kg/injection, schedule: Q01DX009 (ip), vehicle: other",92 % of control
same,T/C,"endpoint: mean survival time, dose: 200.0 mg/kg/injection, schedule: Q01DX009 (ip), vehicle: other",103 % of control
same,T/C,"endpoint: mean survival time, dose: 400.0 mg/kg/injection, schedule: Q01DX009 (ip), vehicle: other",95 % of control
Cc1cc(C(=O)O)c(C)c([N+](=O)[O-])c1,T/C,[5],96 % of control
same,T/C,[12],96 % of control
same,T/C,"endpoint: mean survival time, dose: 400.0 mg/kg/injection, schedule: Q01DX001 (ip), vehicle: saline with Tween-80",100 % of control
CC(C)OC(=O)Nc1cc(F)c(F)cc1F,T/C,[6],103 % of control
same,T/C,[10],103 % of control
same,T/C,[11],103 % of control
O=C(O)COc1ccc(Cl)cc1Cl.[Cr],T/C,[1],94 % of control
same,T/C,[2],87 % of control
same,T/C,[13],102 % of control
OCCc1ccccc1,T/C,"endpoint: mean survival time, dose: 50.0 mg/kg/injection, schedule: Q03HX024 (ip), vehicle: saline with Tween-80",102 % of control
same,T/C,"endpoint: mean survival time, dose: 100.0 mg/kg/injection, schedule: Q03HX024 (ip), vehicle: saline with Tween-80",100 % of control
same,T/C,"endpoint: mean survival time, dose: 100.0 mg/kg/injection, schedule: Q04DX003 (ip), vehicle: saline with Tween-80",96 % of control
same,T/C,"endpoint: mean survival time, dose: 125.0 mg/kg/injection, schedule: Q01DX009 (ip), vehicle: saline",105 % of control
same,T/C,"endpoint: mean survival time, dose: 200.0 mg/kg/injection, schedule: Q03HX024 (ip), vehicle: saline with Tween-80",100 % of control
same,T/C,"endpoint: mean survival time, dose: 200.0 mg/kg/injection, schedule: Q04DX003 (ip), vehicle: saline with Tween-80",93 % of control
same,T/C,"endpoint: mean survival time, dose: 250.0 mg/kg/injection, schedule: Q01DX009 (ip), vehicle: saline",102 % of control
same,T/C,"endpoint: mean survival time, dose: 400.0 mg/kg/injection, schedule: Q04DX003 (ip), vehicle: saline with Tween-80",93 % of control
same,T/C,"endpoint: mean survival time, dose: 500.0 mg/kg/injection, schedule: Q01DX001 (ip), vehicle: saline with Tween-80",106 % of control
same,T/C,"endpoint: mean survival time, dose: 500.0 mg/kg/injection, schedule: Q01DX009 (ip), vehicle: saline",103 % of control
Cc1ccc(C2c3c(nc[nH]c3=O)OC2(C)C)cc1 (stereo not given),T/C,[1],114 % of control
same,T/C,[2],106 % of control
same,T/C,[13],111 % of control
